According to US20190201431A1, “EX VIVO METHODS OF INDUCING IDO EXPRESSION IN ANTIGEN PRESENTING CELLS USING A COMPOUND SELECTED FROM THE GROUP CONSISTING OF AZACYTIDINE, AND DECITABINE” (IDOGEN AB, priority 2016, published 2019):

Tests used:
[1] = tested on: IDO1 gene expression in THP-1 cells; test: Induction of IDO1 in THP-1 cells (RT-qPCR); type: cell-based, human; conditions: 96 hours; for concentration at which the highest level of IDO induction was observed: tested 0.1-10 micromolar; for increase of IDO1 gene expression (maximum over tested concentrations): compound alone
Description: THP-1 cells were harvested from appropriate number of T75 flasks. Cells were counted in a Bürker chamber, stained with 0.4% Trypan Blue. The appropriate number of cells for each experiment were transferred to a new tube and centrifuged at 1200 rpm, 5 min at room temperature (RT). The supernatant was discarded and fresh RPMI with 5% FBS were added to get a cell concentration of 2×10^5 cells/mL. The compound was added to the five separate wells in 6-well plates such that five different final concentrations were obtained after adding the cells. A control was added to one well in the 6-well plate to which cells were added. 1×10^6 cells per well were seeded out to achieve a total volume of 5 mL per well. The cells were incubated at 37° C. in 5% CO2 for 96 hours. After 96 hours the assay was stopped and the cells were lysed for the isolation of RNA.
Total RNA was extracted from THP-1 cells using the RNA RNeasy Mini extraction kit (Qiagen), according to the manufacturer's instructions. A SuperScript® VILO™ RT-kit (Thermo Fisher) was used to reverse transcribe 1 μg of total RNA to cDNA and qPCR was performed. The primers used for amplification of the human IDO1 gene were 5′-[…]-3′ (forward; SEQ ID No. 1) and 5′-[…]-3′ (reverse; SEQ ID No. 2). The primers used for amplification of the endogenous reference gene for human HPRT1 were 5′-[…]-3′ (forward; SEQ ID No. 3) and 5′-[…]-3′ (reverse; SEQ ID No. 4). In brief, RT-qPCR was performed in 20 μl reaction, consisting 10 μl PowerUp SYBR Green Master Mix, 0.5 μM of each primer, 4 μl diluted cDNA for amplification of IDO1 and 1.5 μl diluted cDNA for amplification of HPRT1. An iCycler iQ real-time detection system (Stratagene, Mx3000P, La Jolla, Calif., USA) with the following thermal profile: UDG incubation at 50° C. for 2 min, then denaturation at 95° C. for 5 min, followed by 45 cycles at 94° C. for 15 s, 58° C. for 30 s, and 60° C. for 30 s, was used to perform thermocycling and real-time detection of PCR products. After amplification a melting curve analysis was performed. The RT-qPCR experiments were always run in triplicate. IDO1 was normalised to the geometric means of two HPRT1 reference gene, using the ΔCt method. Within-group comparisons were normalized to one control sample, using the ΔΔCt method.

[2] = tested on: collagen-induced arthritis in DBA/1 mice; test: Treatment of collagen-induced arthritis in vivo; conditions: 1 mg/kg for 4 days from day of arthritis onset, scored 10 days, vs vehicle (FIG. 3, P<0.05)
Description: DBA/1 mice were immunized with bovine type II collagen emulsified in complete Freund's adjuvant. The mice were treated with decitabine (1 mg/kg) for 4 days, starting on the day of arthritis onset. Treatment was then stopped. Negative controls received vehicle alone. Clinical scores were monitored for 10 days following onset of arthritis. A clinical scoring system was used as follows. Arthritis severity was scored by an experienced non-blinded investigator as follows: 0=normal, 1=slight swelling and/or erythema, 2=pronounced swelling, 3=ankylosis. All four limbs were scored, giving a maximum possible score of 12 per animal.

[3] = tested on: naïve CD4+ CD25− T cells; test: Conversion of CD4+CD25− T cells into CD4+FoxP3+ Tregs in vitro; type: cell-based
Description: To assess the effect of decitabine on the generation of Tregs, naïve CD4+ CD25− T cells were cultured with mitomycin C treated APCs plus IL-2, TGFβ and anti-CD3 in the presence or absence of decitabine and numbers of CD4^+FoxP3^+ Tregs were determined by FACS after 72 h. The RNA was isolated from cell lysate, and reverse transcribed to cDNA for RT-qPCR analysis using Taqman primer probes. Expression of genes encoding Foxp3 was normalized to HPRT expression and was calibrated relative to vehicle group.

Structure (SMILES) | concentration at which the highest level of IDO induction was observed [1] | IDO1 expression (fold change) ([1]; azacytidine 0.1 micromolar, vs H2O:HAc control) | IDO1 expression (fold change) ([1]; azacytidine 0.3 micromolar, vs H2O:HAc control) | IDO1 expression (fold change) ([1]; azacytidine 1 micromolar, vs H2O:HAc control) | IDO1 expression (fold change) ([1]; azacytidine 3 micromolar, vs H2O:HAc control) | IDO1 expression (fold change) ([1]; azacytidine 10 micromolar, vs H2O:HAc control) | increase of IDO1 gene expression (maximum over tested concentrations) ([1]; 0.1-10 micromolar) | disease severity (mean clinical score) [2] | relative expression of the Foxp3 gene (RT-qPCR) ([3]; normalized to HPRT, relative to vehicle group, vs control "nil" (FIG. 4C)) | frequencies of CD4+FoxP3+ Tregs (FACS) ([3]; with mitomycin C treated APCs, IL-2, TGFβ, anti-CD3, after 72 h, vs control "nil" (FIG. 4B)) | dose dependence of IDO1 gene expression ([1]; 0.1-10 micromolar) | IDO1 expression (fold change) ([1]; decitabine 0.1 micromolar, vs DMSO control) | IDO1 expression (fold change) ([1]; decitabine 0.3 micromolar, vs DMSO control) | IDO1 expression (fold change) ([1]; decitabine 1 micromolar, vs DMSO control) | IDO1 expression (fold change) ([1]; decitabine 3 micromolar, vs DMSO control) | IDO1 expression (fold change) ([1]; decitabine 10 micromolar, vs DMSO control)
Nc1ncn([C@@H]2O[C@H](CO)[C@@H](O)[C@H]2O)c(=O)n1 [azacytidine, 4-Amino-1-(β-D-ribofuranosyl)-1,3,5-triazin-2(1H)-one] | 1 µM | 0.5 fold change | 1.2 fold change | 23 fold change | 6 fold change | 8.6 fold change | up to 23 fold |  |  |  |  |  |  |  |  | 
Nc1ncn([C@H]2C[C@H](O)[C@@H](CO)O2)c(=O)n1 [decitabine, 4-Amino-1-(2-deoxy-β-D-ribofuranosyl)-1,3,5-triazin-2(1H)-one] | 10 µM |  |  |  |  |  | up to 101 fold | successful in reducing disease severity | increased in a dose-dependent manner | increased in a dose-dependent manner | a dose-related response was observed | 6 fold change | 16.4 fold change | 40 fold change | 87 fold change | 101 fold change
